# US20070149570A1, “Piperidine derivative and use thereof” (priority 2005, published 2007)
# pIC50: −log10 of the molar value.
# Biological target: T1, substance P receptors (Homo sapiens, UniProt P25103)
# T1 construct: The receptor was prepared from human lymphoblast cells (IM-9); endogenous in cells; host or cells: IM-9 human lymphoblast cells (membrane preparation)
# Test: Radioligand receptor binding inhibitory activity using receptor from human lymphoblast cells (IM-9), 125I-BHSP
# Conditions: IC50 (concentration necessary to cause 50% inhibition), radioligand 125I-BHSP, 25° C., 30 minutes
# Procedure: Radioligand receptor binding inhibitory activity (Binding inhibitory activity using receptor from human lymphoblast cells (IM-9))
# The method of M. A. Cascieri et al., [Molecular Pharmacology, vol. 42, p. […] The receptor was prepared from human lymphoblast cells (IM-9). IM-9 cells (2×10^5 cells/mL) were incubated for 3 days (one liter), which was then subjected to centrifugation for 5 minutes at 500×G to obtain cell pellets. […] The residue was washed twice with 30 mL of the above-mentioned buffer, which was then preserved frozen (−80° C.) as a specimen of the receptor.
# The specimen was suspended in a reaction buffer (50 mM Tri-HCl buffer (pH 7.4), 0.02% bovine serum albumin, 1 mM phenylmethylsulfonyl fluoride, 2 μg/mL chymostatin, 40 μg/mL bacitracin and 3 mM manganese chloride) to have protein in the concentration of 0.5 mg/mL of protein and 100 μL portion of the suspension was used in the reaction. […] The amount of nonspecific binding was determined by adding substance P at a final concentration of 2×10^−6 M.
# After the reaction, using a cell harvester (290 PHD, Cambridge Technology, Inc., U.S.A.), filtration was carried out through a glass filter (GF/B, Whatman, U.S.A.), which was immersed in 0.1% polyethyleneimine for 24 hours and dried. After washing three times with 250 μL of 50 mM Tris-HCl buffer (pH 7.4) containing 0.02% bovine serum albumin, the radioactivity remaining on the filter was determined with a gamma counter.
# T1 sequence (P25103 whole entry): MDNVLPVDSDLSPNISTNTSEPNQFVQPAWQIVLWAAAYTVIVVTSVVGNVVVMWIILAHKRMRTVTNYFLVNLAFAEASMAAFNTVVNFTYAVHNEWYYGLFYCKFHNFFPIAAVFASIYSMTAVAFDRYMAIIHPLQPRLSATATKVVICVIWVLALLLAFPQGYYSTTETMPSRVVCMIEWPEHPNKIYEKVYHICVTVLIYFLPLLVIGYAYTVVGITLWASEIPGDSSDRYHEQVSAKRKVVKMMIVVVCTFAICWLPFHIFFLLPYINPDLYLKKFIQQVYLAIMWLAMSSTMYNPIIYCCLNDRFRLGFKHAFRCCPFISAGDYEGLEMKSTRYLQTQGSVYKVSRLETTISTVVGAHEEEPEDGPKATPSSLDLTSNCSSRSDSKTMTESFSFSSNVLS
row,Structure (SMILES),pIC50
1,"COc1ccc(-c2ccc(C#N)cc2)cc1CN[C@H]1CCN(C(=O)C2CCN(C(C)=O)CC2)C[C@H]1c1ccccc1 [Example 35, 3′-[({(3R,4S)-1-[(1-acetylpiperidin-4-yl)carbonyl]-3-phenylpiperidin-4-yl}amino)methyl]-4′-methoxybiphenyl-4-carbonitrile]",10.77

# Same assay, conditions: radioligand 125I-BHSP, 25° C., 30 minutes, read-out: IC50 (concentration necessary to cause 50% inhibition)
row,Structure (SMILES),pIC50
1,"CC(=O)N1CCC(C(=O)N2CC[C@H](NCc3cc(-c4ccc(C#N)cc4F)ccc3OC(F)(F)F)[C@H](c3ccccc3)C2)CC1 [Example 101, 3′-[({(3R,4S)-1-[(1-acetylpiperidin-4-yl)carbonyl]-3-phenylpiperidin-4-yl}amino)methyl]-2-fluoro-4′-(trifluoromethoxy)biphenyl-4-carbonitrile]",10.62
2,"CC1(C)OC(=O)N(CC(=O)N2CC[C@H](NCc3cc(-c4ccc(C#N)cc4)ccc3OC(F)(F)F)[C@H](c3ccccc3)C2)C1=O [Example 137, 3′-[({(3R,4S)-1-[(5,5-dimethyl-2,4-dioxo-1,3-oxazolidin-3-yl)acetyl]-3-phenylpiperidin-4-yl}amino)methyl]-4′-(trifluoromethoxy)biphenyl-4-carbonitrile]",10.38
3,"CC1(C)OC(=O)N(CC(=O)N2CC[C@H](NCc3cc(-c4ccc(Cl)cc4)ccc3OC(F)(F)F)[C@H](c3ccccc3)C2)C1=O [Example 116, 3-{2-[(3R,4S)-4-({[4′-chloro-4-(trifluoromethoxy)biphenyl-3-yl]methyl}amino)-3-phenylpiperidin-1-yl]-2-oxoethyl}-5,5-dimethyl-1;3-oxazolidine-2,4-dione]",10.24
4,"COCC(=O)N1CC[C@H](NCc2cc(-c3ccc(C#N)cc3F)ccc2OC)[C@H](c2ccccc2)C1 [Example 33, 2-fluoro-4′-methoxy-3′-({[(3R,4S)-1-(methoxyacetyl)-3-phenylpiperidin-4-yl]amino}methyl)biphenyl-4-carbonitrile]",10.82
5,"COc1ccc(-c2ccc(C#N)cc2)cc1CN[C@H]1CCN(C(=O)C2CC(=O)NC(=O)C2)C[C@H]1c1ccccc1 [Example 42, 3′-[({(3R,4S)-1-[(2,6-dioxopiperidin-4-yl)carbonyl]-3-phenylpiperidin-4-yl}amino)methyl]-4′-methoxybiphenyl-4-carbonitrile]",10.85
6,"CC1(C)OC(=O)N(CC(=O)N2CC[C@H](NCc3cc(-c4ccc(C#N)cc4F)ccc3OC(F)(F)F)[C@H](c3ccccc3)C2)C1=O [Example 97, 3′-[({(3R,4S)-1-[(5,5-dimethyl-2,4-dioxo-1,3-oxazolidin-3-yl)acetyl]-3-phenylpiperidin-4-yl}amino)methyl]-2-fluoro-4′-(trifluoromethoxy)biphenyl-4-carbonitrile]",10.64
7,"O=C1CC(C(=O)N2CC[C@H](NCc3cc(-c4ccc(Cl)cc4F)ccc3OC(F)(F)F)[C@H](c3ccccc3)C2)CC(=O)N1 [Example 132, 4-{[(3R,4S)-4-({[4′-chloro-2′-fluoro-4-(trifluoromethoxy)biphenyl-3-yl]methyl}amino)-3-phenylpiperidin-1-yl]carbonyl}piperidine-2,6-dione]",9.85
8,"COc1ccc(-c2ccc(C#N)cc2)cc1CN[C@H]1CCN(C(=O)Cn2cnnn2)C[C@H]1c1ccccc1 [Example 43, 4′-methoxy-3′-({[(3R,4S)-3-phenyl-1-(1H-tetrazol-1-ylacetyl)piperidin-4-yl]amino}methyl)biphenyl-4-carbonitrile]",10.82
9,"COc1ccc(-c2ccc(C#N)cc2)cc1CN[C@H]1CCN(C(=O)Cc2n[nH]c(=O)[nH]2)C[C@H]1c1ccccc1 [Example 44, 4′-methoxy-3′-[({(3R,4S)-1-[(5-oxo-4,5-dihydro-1H-1,2,4-triazol-3-yl)acetyl]-3-phenylpiperidin-4-yl}amino)methyl]biphenyl-4-carbonitrile]",10.82
10,"CC1(C)OC(=O)N(CC(=O)N2CC[C@H](NCc3cc(-c4ccc(C#N)cc4F)ccc3OC(F)(F)F)[C@H](c3ccccc3)C2)C1=O [Example 96, 3′-[({(3R,4S)-1-[(5,5-dimethyl-2,4-dioxo-1,3-oxazolidin-3-yl)acetyl]-3-phenylpiperidin-4-yl}amino)methyl]-2-fluoro-4′-(trifluoromethoxy)biphenyl-4-carbonitrile]",10.68
11,"COc1ccc(-c2ccc(C#N)cc2F)cc1CN[C@H]1CCN(C(=O)C2CCN(C(C)=O)CC2)C[C@H]1c1ccccc1 [Example 36, 3′-[({(3R,4S)-1-[(1-acetylpiperidin-4-yl)carbonyl]-3-phenylpiperidin-4-yl}amino)methyl]-2-fluoro-4′-methoxybiphenyl-4-carbonitrile]",10.77
12,"N#Cc1ccc(-c2ccc(OC(F)(F)F)c(CN[C@H]3CCN(C(=O)C4CC(=O)NC(=O)C4)C[C@H]3c3ccccc3)c2)c(F)c1 [Example 102, 3′-[({(3R,4S)-1-[(2,6-dioxopiperidin-4-yl)carbonyl]-3-phenylpiperidin-4-yl}amino)methyl]-2-fluoro-4′-(trifluoromethoxy)biphenyl-4-carbonitrile]",10.89

# More lines, now with the values ahead:
row,pIC50,Structure (SMILES)
1,10.72,"COc1ccc(-c2ccc(C#N)c(F)c2)cc1CN[C@H]1CCN(C(=O)CNC(C)=O)C[C@H]1c1ccccc1 [Example 21, N-[2-((3R,4S)-4-{[(4′-cyano-3′-fluoro-4-methoxybiphenyl-3-yl)methyl]amino}-3-phenylpiperidin-1-yl)-2-oxoethyl]acetamide]"
2,10.74,"COc1ccc(-c2ccc(C#N)cc2C)cc1CN[C@H]1CCN(C(=O)CNC(C)=O)C[C@H]1c1ccccc1 [Example 25, N-[2-((3R,4S)-4-{[(4′-cyano-4-methoxy-2′-methylbiphenyl-3-yl)methyl]amino}-3-phenylpiperidin-1-yl)-2-oxoethyl]acetamide]"
3,10.74,"COc1ccc(-c2ccc(Br)cc2)cc1CN[C@H]1CCN(C(=O)CNC(C)=O)C[C@H]1c1ccccc1 [Example 22, N-[2-((3R,4S)-4-{[(4′-bromo-4-methoxybiphenyl-3-yl)methyl]amino}-3-phenylpiperidin-1-yl)-2-oxoethyl]acetamide]"
4,10.64,"CC(=O)NCC(=O)N1CC[C@H](NCc2cc(-c3ccc(Cl)cc3)ccc2OC(F)(F)F)[C@H](c2ccccc2)C1 [Example 72, N-{2-[(3R,4S)-4-({[4′-chloro-4-(trifluoromethoxy)biphenyl-3-yl]methyl}amino)-3-phenylpiperidin-1-yl]-2-oxoethyl}acetamide]"
5,10.66,"COc1ccc(-c2ccc(C)cc2)cc1CN[C@H]1CCN(C(=O)CNC(C)=O)C[C@H]1c1ccccc1 [Example 17, N-[2-((3R,4S)-4-{[(4-methoxy-4′-methylbiphenyl-3-yl)methyl]amino}-3-phenylpiperidin-1-yl)-2-oxoethyl]acetamide]"
6,10.72,"COc1ccc(-c2ccc(C#N)cc2)cc1CN[C@H]1CCN(C(=O)CNC(C)=O)C[C@H]1c1ccccc1 [Example 10, N-[2-((3R,4S)-4-{[(4′-cyano-4-methoxybiphenyl-3-yl)methyl]amino}-3-phenylpiperidin-1-yl)-2-oxoethyl]acetamide]"
7,10.70,"COc1ccc(-c2ccc(Cl)cc2)cc1CN[C@H]1CCN(C(=O)CNC(C)=O)C[C@H]1c1ccccc1 [Example 15, N-[2-((3R,4S)-4-{[(4′-chloro-4-methoxybiphenyl-3-yl)methyl]amino}-3-phenylpiperidin-1-yl)-2-oxoethyl]acetamide]"
8,10.82,"COCC(=O)N1CC[C@H](NCc2cc(-c3ccc(C#N)cc3)ccc2OC)[C@H](c2ccccc2)C1 [Example 32, 4′-methoxy-3′-({[(3R,4S)-1-(methoxyacetyl)-3-phenylpiperidin-4-yl]amino}methyl)biphenyl-4-carbonitrile]"
9,10.80,"COc1ccc(-c2ccc(C#N)cc2F)cc1CN[C@H]1CCN(C(=O)CNC(C)=O)C[C@H]1c1ccccc1 [Example 11, N-[2-((3R,4S)-4-{[(4′-cyano-2′-fluoro-4-methoxybiphenyl-3-yl)methyl]amino}-3-phenylpiperidin-1-yl)-2-oxoethyl]acetamide]"
10,10.82,"C#Cc1ccc(-c2ccc(OC)c(CN[C@H]3CCN(C(=O)CNC(C)=O)C[C@H]3c3ccccc3)c2)cc1 [Example 23, N-[2-((3R,4S)-4-{[(4′-ethynyl-4-methoxybiphenyl-3-yl)methyl]amino}-3-phenylpiperidin-1-yl)-2-oxoethyl]acetamide]"
11,10.44,"COc1ccc(-c2ccc(C(F)(F)F)cc2)cc1CN[C@H]1CCN(C(=O)CNC(C)=O)C[C@H]1c1ccccc1 [Example 18, N-{2-[(3R,4S)-4-({[4-methoxy-4′-(trifluoromethyl)biphenyl-3-yl]methyl}amino)-3-phenylpiperidin-1-yl]-2-oxoethyl}acetamide]"
12,10.72,"COc1ccc(-c2ccc(C#N)cc2)cc1CN[C@H]1CCN(C(=O)[C@@H](CC(N)=O)NC(C)=O)C[C@H]1c1ccccc1 [Example 41, (3R)-3-(acetylamino)-4-((3R,4S)-4-{[(4′-cyano-4-methoxybiphenyl-3-yl)methyl]amino}-3-phenylpiperidin-1-yl)-4-oxobutanamide]"
13,10.51,"COc1ccc(-c2ccc(F)cc2)cc1CN[C@H]1CCN(C(=O)CNC(C)=O)C[C@H]1c1ccccc1 [Example 16, N-[2-((3R,4S)-4-{[(4′-fluoro-4-methoxybiphenyl-3-yl)methyl]amino}-3-phenylpiperidin-1-yl)-2-oxoethyl]acetamide]"
